Here are results for 26 compounds from patent publication US11590116B2 (THERAVANCE BIOPHARMA R&D IP, LLC, priority 2019, dated 2023).

The target in assay [1] is T1, recombinant human ALK5 (TGF-βR1) protein (Homo sapiens, UniProt P36897).
T1 construct: purchased Life Technologies PR9075A
T1 sequence (P36897 34-503): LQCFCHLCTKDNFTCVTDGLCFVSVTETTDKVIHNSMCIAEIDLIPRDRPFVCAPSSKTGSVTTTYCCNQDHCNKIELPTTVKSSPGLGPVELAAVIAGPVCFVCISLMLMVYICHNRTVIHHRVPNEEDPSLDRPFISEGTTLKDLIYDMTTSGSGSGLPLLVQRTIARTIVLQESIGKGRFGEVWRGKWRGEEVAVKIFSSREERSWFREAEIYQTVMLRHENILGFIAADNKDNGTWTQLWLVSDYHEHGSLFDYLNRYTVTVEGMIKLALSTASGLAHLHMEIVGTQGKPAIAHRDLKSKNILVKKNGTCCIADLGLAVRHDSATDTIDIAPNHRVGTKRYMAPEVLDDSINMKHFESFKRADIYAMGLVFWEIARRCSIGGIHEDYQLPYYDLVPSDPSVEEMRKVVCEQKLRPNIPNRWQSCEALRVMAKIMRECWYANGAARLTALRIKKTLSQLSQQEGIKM
Briefly: Biochemical ALK5 (TGF-βR1) assay to measure pKi (LANCE Ultra ULight kinase assay). The note with it: apparent pKi from pIC50 by Cheng-Prusoff, read-out: ALK5 pKi (converted). An outline of the steps: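 After a 60 min room-temperature preincubation of ALK5 with compound, phosphorylation proceeds 60 min at 37 °C on ATP addition (125 μM as 5× stock). Detection: Eu-labelled phospho-Thr1342 Topo IIα antibody in EDTA buffer, pH 7.0; emission 665 nm.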
A general note: In TR-FRET formats the signal depends on donor and acceptor labels being close together.

Assay [2] deals with TGF-β-stimulated SMAD3 phosphorylation in BEAS-2B cells. Briefly: Cellular ALK5 potency assay, inhibition of TGF-β stimulated pSMAD3 formation in BEAS-2B cells. Type of assay: cell-based. The note with it: Homo sapiens; inhibition of TGF-β stimulated pSMAD3 formation, BEAS-2B cells; read-out: BEAS2B pIC50 (converted). An outline of the steps:
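Cells seeded overnight; rinse with supplemented HBSS; compound 1 h at 37 °C; TGF-β 10 ng/mL final, 30 min; lyse; AlphaLISA acceptor and detector beads 2 h apart, read next day. Potency expressed as pIC50.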

Molecules are shown by their SMILES. Some results are limits rather than exact numbers.

On to `Cc1cccc(-c2n[nH]cc2-c2ccc3ncc(-c4ncco4)cc3n2)n1` [Compound 72, 2-[6-[3-(6-methyl-2-pyridyl)-1H-pyrazol-4-yl]-1,5-naphthyridin-3-yl]oxazole], for which the Ki in assay [1] is 0.0398 to 0.316 nM. For the same compound, the IC50 in assay [2] was 25.1 to 158 nM.

As to `Cc1cccc(-c2n[nH]cc2-c2ccc3ncc(N(C)CC4CNC4)cc3n2)n1` [Compound 357, N-(azetidin-3-ylmethyl)-N-methyl-6-[3-(6-methyl-2-pyridyl)-1H-pyrazol-4-yl]-1,5-naphthyridin-3-amine], in assay [1], the Ki is less than 0.0316 nM. Also, the IC50 in assay [2] was 25.1 to 158 nM.

For `Cc1cccc(-c2[nH]cnc2-c2ccc3ncc(-c4cccc(C(=O)O[C@H]5CCN(C)C5)c4)cc3c2)n1` [Compound 522, [(3S)-1-methylpyrrolidin-3-yl] 3-[6-[5-(6-methyl-2-pyridyl)-1H-imidazol-4-yl]-3-quinolyl]benzoate], the Ki in assay [1] was 0.0398 to 0.316 nM. For the same compound, the IC50 in assay [2] was 25.1 to 158 nM.

With `CNC1CN(c2cnc3ccc(-c4nc[nH]c4-c4cccc(C)n4)cc3c2)C1` [Compound 614, N-methyl-1-[6-[5-(6-methyl-2-pyridyl)-1H-imidazol-4-yl]-3-quinolyl]azetidin-3-amine], in assay [1], the Ki was 0.0398 to 0.316 nM. Moreover, in assay [2], the IC50 is 25.1 to 158 nM.

Regarding `Cc1cccc(-c2n[nH]cc2-c2ccc3ncc(N4CCC(N(C)C)CC4)cc3n2)n1` [Compound 141, N,N-dimethyl-1-[6-[3-(6-methyl-2-pyridyl)-1H-pyrazol-4-yl]-1,5-naphthyridin-3-yl]piperidin-4-amine], the Ki in assay [1] is less than 0.0316 nM. Besides, the IC50 in assay [2] was 25.1 to 158 nM.

Take `Cc1cccc(-c2[nH]cnc2-c2ccc3ncc(N4C[C@@H](C)N[C@@H](C)C4)cc3c2)n1` [Compound 148, 3-[(3R,5S)-3,5-dimethylpiperazin-1-yl]-6-[5-(6-methyl-2-pyridyl)-1H-imidazol-4-yl]quinoline]: in assay [1], the Ki was 0.0398 to 0.316 nM. For the same compound, the IC50 in assay [2] was 25.1 to 158 nM.

For the compound `Cc1cccc(-c2[nH]cnc2-c2ccc3ncc(C(=O)OCCN4CCC5(CC4)CNC5)cc3c2)n1` [Compound 892, 2-(2,7-diazaspiro[3.5]nonan-7-yl)ethyl 6-(5-(6-methylpyridin-2-yl)-1H-imidazol-4-yl)quinoline-3-carboxylate], in assay [1], the Ki was 0.0398 to 0.316 nM. Further, the IC50 in assay [2] is 200 to 1260 nM.

`COC(=O)c1ccnc2ccc(-c3c(OC)n[nH]c3-c3cccc(C)n3)nc12` [Compound 864, methyl 6-[3-methoxy-5-(6-methyl-2-pyridyl)-1H-pyrazol-4-yl]-1,5-naphthyridine-4-carboxylate]: the Ki in assay [1] was 0.398 to 3.16 nM. For the same compound, in assay [2], the IC50 was 200 to 1260 nM.

Turning to `Cc1cccc(-c2c(-c3ccc4ncc(N5CCCNCC5)cc4c3)nnn2Cc2ccccc2)n1` [Compound 360, 6-[1-benzyl-5-(6-methyl-2-pyridyl)triazol-4-yl]-3-(1,4-diazepan-1-yl)quinoline], the Ki in assay [1] is 0.398 to 3.16 nM. In assay [2], the IC50 is 1580 to 10000 nM.

Regarding `Cc1nc(-c2n[nH]cc2-c2ccc3ncc(-c4cnn5c4NCC5)cc3n2)ccc1F` [Compound 534, 7-(2,3-dihydro-1H-imidazo[1,2-b]pyrazol-7-yl)-2-[3-(5-fluoro-6-methyl-2-pyridyl)-1H-pyrazol-4-yl]-1,5-naphthyridine], the Ki in assay [1] is less than 0.0316 nM. Besides, the IC50 in assay [2] was less than 20 nM.

As to `Cc1cccc(-c2c(-c3ccc4ncc(N5CCC(N(C)C)C5)cc4c3)nnn2Cc2ccccc2)n1` (stereo not shown) [Compound 38, 1-[6-[1-benzyl-5-(6-methyl-2-pyridyl)triazol-4-yl]-3-quinolyl]-N,N-dimethyl-pyrrolidin-3-amine], in assay [1], the Ki was 0.398 to 3.16 nM. Also, in assay [2], the IC50 is 1580 to 10000 nM.

Regarding `Cc1cccc(-c2[nH]cnc2-c2ccc3ncc(N4CC(CN)C4)cc3c2)n1` [Compound 68, [1-[6-[5-(6-methyl-2-pyridyl)-1H-imidazol-4-yl]-3-quinolyl]azetidin-3-yl]methanamine], the Ki in assay [1] was 0.0398 to 0.316 nM. Moreover, in assay [2], the IC50 was less than 20 nM.

With `Cc1cccc(-c2[nH]cnc2-c2ccc3ncc(NCCN4C[C@@H](C)N[C@@H](C)C4)cc3c2)n1` [Compound 313, N-(2-((3R,5S)-3,5-dimethylpiperazin-1-yl)ethyl)-6-(5-(6-methylpyridin-2-yl)-1H-imidazol-4-yl)quinolin-3-amine], the Ki in assay [1] was 0.0398 to 0.316 nM. The IC50 in assay [2] was 25.1 to 158 nM.

As for `Cc1cccc(-c2[nH]cnc2-c2ccc3ncc(-c4nc(C5=CCNC5)cs4)cc3c2)n1` [Compound 1043, 4-(2,5-dihydro-1H-pyrrol-3-yl)-2-[6-[5-(6-methyl-2-pyridyl)-1H-imidazol-4-yl]-3-quinolyl]thiazole], the Ki in assay [1] was 0.0398 to 0.316 nM. In addition, the IC50 in assay [2] is less than 20 nM.

`Cc1cccc(-c2[nH]cnc2-c2ccc3ncc(C(=O)OCCN4CCCCC4)cc3c2)n1` [Compound 887, 2-(piperidin-1-yl)ethyl 6-(5-(6-methylpyridin-2-yl)-1H-imidazol-4-yl)quinoline-3-carboxylate]: the Ki in assay [1] is 0.0398 to 0.316 nM. Besides, the IC50 in assay [2] is 25.1 to 158 nM.

In the case of `Cc1cccc(-c2n[nH]cc2-c2ccc3ncc(-c4ncc5n4CCN5)cc3n2)n1` [Compound 641, 7-(2,3-dihydro-1H-imidazo[1,5-a]imidazol-5-yl)-2-[3-(6-methyl-2-pyridyl)-1H-pyrazol-4-yl]-1,5-naphthyridine], the Ki in assay [1] is 0.0398 to 0.316 nM. In addition, the IC50 in assay [2] was 25.1 to 158 nM.

On to `Cc1cccc(-c2[nH]cnc2-c2ccc3ncc(N4CCCC5(CNC5)C4)cc3c2)n1` [Compound 280, 3-(2,6-diazaspiro[3.5]nonan-6-yl)-6-[5-(6-methyl-2-pyridyl)-1H-imidazol-4-yl]quinoline], for which the Ki in assay [1] is 0.0398 to 0.316 nM. In addition, in assay [2], the IC50 is 200 to 1260 nM.

With `Cc1cccc(-c2[nH]ncc2-c2ccc3ncc(C(=O)OC4CCC5(CNC5)C4)cc3n2)n1` (stereo not shown) [Compound 62, 2-azaspiro[3.4]octan-6-yl 6-[5-(6-methyl-2-pyridyl)-1H-pyrazol-4-yl]-1,5-naphthyridine-3-carboxylate], the Ki in assay [1] is 0.0398 to 0.316 nM. The IC50 in assay [2] is 200 to 1260 nM.

Regarding `Cc1cccc(-c2[nH]cnc2-c2ccc3ncc(C4=CCC(NCC5CCOC5=O)CC4)cc3c2)n1` (stereo not shown) [Compound 456, 3-[[[4-[6-[5-(6-methyl-2-pyridyl)-1H-imidazol-4-yl]-3-quinolyl]cyclohex-3-en-1-yl]amino]methyl]tetrahydrofuran-2-one], in assay [1], the Ki is less than 0.0316 nM. Also, the IC50 in assay [2] was less than 20 nM.

For `Cc1cccc(-c2nc3ccccn3c2-c2ccc3ncc(-c4cn[nH]c4)cc3n2)n1` [Compound 469, 2-(2-(6-methylpyridin-2-yl)imidazo[1,2-a]pyridin-3-yl)-7-(1H-pyrazol-4-yl)-1,5-naphthyridine], the Ki in assay [1] is 0.0398 to 0.316 nM. Also, in assay [2], the IC50 was less than 20 nM.

Regarding `Cc1cccc(-c2[nH]cnc2-c2ccc3ncc(C(=O)OCCN4CC5(CCCNC5)C4)cc3c2)n1` [Compound 890, 2-(2,6-diazaspiro[3.5]nonan-2-yl)ethyl 6-(5-(6-methylpyridin-2-yl)-1H-imidazol-4-yl)quinoline-3-carboxylate], in assay [1], the Ki was 0.398 to 3.16 nM. Further, the IC50 in assay [2] is 200 to 1260 nM.

For the compound `Cc1cccc(-c2[nH]cnc2-c2ccc3ncc(-c4csc(C(=O)O[C@H]5CC[C@](C)(N)CC5)c4)cc3c2)n1` [Compound 1200, (4-amino-4-methyl-cyclohexyl) 4-[6-[5-(6-methyl-2-pyridyl)-1H-imidazol-4-yl]-3-quinolyl]thiophene-2-carboxylate], in assay [1], the Ki is 0.0398 to 0.316 nM. Moreover, the IC50 in assay [2] was 25.1 to 158 nM.

As for `Cc1cccc(-c2n[nH]cc2-c2ccc3nccc(CN4CCN(CC(=O)O)CC4)c3n2)n1` [Compound 822, 2-[4-[[6-[3-(6-methyl-2-pyridyl)-1H-pyrazol-4-yl]-1,5-naphthyridin-4-yl]methyl]piperazin-1-yl]acetic acid], in assay [1], the Ki is 0.398 to 3.16 nM. For the same compound, the IC50 in assay [2] was 25.1 to 158 nM.

Regarding `COc1[nH]nc(-c2cccc(C)n2)c1-c1ccc2ncc(Br)cc2n1` [Compound 42, 7-bromo-2-(5-methoxy-3-(6-methylpyridin-2-yl)-1H-pyrazol-4-yl)-1,5-naphthyridine], in assay [1], the Ki is 0.0398 to 0.316 nM. Besides, in assay [2], the IC50 is 25.1 to 158 nM.

For `Cc1cccc(-c2[nH]ncc2-c2ccc3ncc(C(=O)OCCN4CCC[C@H](N)C4)cc3c2)n1` [Compound 1191, 2-[(3S)-3-amino-1-piperidyl]ethyl 6-[5-(6-methyl-2-pyridyl)-1H-pyrazol-4-yl]quinoline-3-carboxylate], in assay [1], the Ki was less than 0.0316 nM. Also, the IC50 in assay [2] was 25.1 to 158 nM.

For the compound `COC(=O)[C@H]1CNCCN1CCNc1cnc2ccc(-c3nc[nH]c3-c3cccc(C)n3)cc2c1` [Compound 723, methyl (2R)-1-[2-[[6-[5-(6-methyl-2-pyridyl)-1H-imidazol-4-yl]-3-quinolyl]amino]ethyl]piperazine-2-carboxylate], in assay [1], the Ki was 0.0398 to 0.316 nM. Further, the IC50 in assay [2] is 200 to 1260 nM.
